{"source": "patent US11767310B2", "about": "“Nicotinamide RIPK1 inhibitors” (AbbVie Inc., priority 2021, dated 2023)", "assay_in_all_cases": "Kinase binding screen", "key": {"VPS34": {"target": "VPS34 (Homo sapiens (Human), UniProt Q8NEB9)", "settings": "read-out: Percent Control at 100 nM Compound Concentration"}, "[1]": {"target": "ABL1(F317I)-nonphosphorylated (Homo sapiens (Human), UniProt P00519, F317I)", "settings": "read-out: Percent Control at 100 nM Compound Concentration"}, "BMPR1A": {"target": "BMPR1A (Homo sapiens (Human), UniProt P36894)", "settings": "read-out: Percent Control at 100 nM Compound Concentration"}, "MAPKAPK2": {"target": "MAPKAPK2 (Homo sapiens (Human), UniProt P49137)", "sequence (P49137 whole entry)": "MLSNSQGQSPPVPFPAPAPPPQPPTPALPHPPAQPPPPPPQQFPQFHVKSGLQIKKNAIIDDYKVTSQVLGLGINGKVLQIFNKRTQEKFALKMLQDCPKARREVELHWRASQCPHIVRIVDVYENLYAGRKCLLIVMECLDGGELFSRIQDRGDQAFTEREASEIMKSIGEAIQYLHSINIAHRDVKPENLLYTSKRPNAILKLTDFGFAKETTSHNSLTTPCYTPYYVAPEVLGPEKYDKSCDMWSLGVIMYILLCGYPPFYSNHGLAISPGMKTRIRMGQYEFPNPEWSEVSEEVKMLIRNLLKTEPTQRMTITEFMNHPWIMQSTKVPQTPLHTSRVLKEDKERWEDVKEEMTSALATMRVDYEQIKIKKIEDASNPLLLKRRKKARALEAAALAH", "settings": "read-out: Percent Control at 100 nM Compound Concentration"}, "FLT3(ITD,F691L)": {"tested_on": "FLT3(ITD,F691L)", "set-up": "species or system human"}, "LTK": {"target": "LTK (Homo sapiens (Human), UniProt P29376)", "settings": "read-out: Percent Control at 100 nM Compound Concentration"}, "STK35": {"target": "STK35 (Homo sapiens (Human), UniProt Q8TDR2)", "settings": "read-out: Percent Control at 100 nM Compound Concentration"}, "CSNK1A1L": {"target": "CSNK1A1L (Homo sapiens (Human), UniProt Q8N752)", "sequence (Q8N752 whole entry)": "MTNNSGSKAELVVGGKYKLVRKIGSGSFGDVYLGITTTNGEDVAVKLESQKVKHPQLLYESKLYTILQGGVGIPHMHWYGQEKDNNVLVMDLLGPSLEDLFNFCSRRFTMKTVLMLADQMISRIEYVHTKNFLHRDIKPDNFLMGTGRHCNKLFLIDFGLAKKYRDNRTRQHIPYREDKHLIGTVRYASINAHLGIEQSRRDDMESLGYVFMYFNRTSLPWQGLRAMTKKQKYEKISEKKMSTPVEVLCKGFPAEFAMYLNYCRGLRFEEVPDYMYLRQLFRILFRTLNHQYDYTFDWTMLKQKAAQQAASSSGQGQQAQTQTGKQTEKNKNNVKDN", "settings": "read-out: Percent Control at 100 nM Compound Concentration"}, "PFTK1": {"target": "PFTK1 (Homo sapiens (Human), UniProt O94921)", "settings": "read-out: Percent Control at 100 nM Compound Concentration"}, "PKN2": {"target": "PKN2 (Homo sapiens (Human), UniProt Q16513)", "settings": "read-out: Percent Control at 100 nM Compound Concentration"}, "MKNK2": {"target": "MKNK2 (Homo sapiens (Human), UniProt Q9HBH9)", "sequence (Q9HBH9 whole entry)": "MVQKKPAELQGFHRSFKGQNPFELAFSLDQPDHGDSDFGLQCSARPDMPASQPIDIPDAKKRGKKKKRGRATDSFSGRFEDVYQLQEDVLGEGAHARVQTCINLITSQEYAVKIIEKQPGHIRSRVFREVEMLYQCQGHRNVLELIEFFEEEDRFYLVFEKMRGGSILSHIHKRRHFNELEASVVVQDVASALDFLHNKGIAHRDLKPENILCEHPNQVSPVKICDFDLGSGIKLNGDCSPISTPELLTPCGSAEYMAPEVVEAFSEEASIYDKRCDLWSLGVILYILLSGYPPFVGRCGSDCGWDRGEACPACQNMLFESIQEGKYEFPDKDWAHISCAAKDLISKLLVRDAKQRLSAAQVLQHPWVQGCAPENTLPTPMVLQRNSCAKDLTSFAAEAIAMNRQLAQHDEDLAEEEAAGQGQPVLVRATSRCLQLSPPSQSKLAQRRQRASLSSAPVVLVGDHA", "settings": "read-out: Percent Control at 100 nM Compound Concentration"}, "BRSK2": {"target": "BRSK2 (Homo sapiens (Human), UniProt Q8IWQ3)", "settings": "read-out: Percent Control at 100 nM Compound Concentration"}, "CTK": {"target": "CTK (Homo sapiens (Human), UniProt P42679)", "sequence (P42679 whole entry)": "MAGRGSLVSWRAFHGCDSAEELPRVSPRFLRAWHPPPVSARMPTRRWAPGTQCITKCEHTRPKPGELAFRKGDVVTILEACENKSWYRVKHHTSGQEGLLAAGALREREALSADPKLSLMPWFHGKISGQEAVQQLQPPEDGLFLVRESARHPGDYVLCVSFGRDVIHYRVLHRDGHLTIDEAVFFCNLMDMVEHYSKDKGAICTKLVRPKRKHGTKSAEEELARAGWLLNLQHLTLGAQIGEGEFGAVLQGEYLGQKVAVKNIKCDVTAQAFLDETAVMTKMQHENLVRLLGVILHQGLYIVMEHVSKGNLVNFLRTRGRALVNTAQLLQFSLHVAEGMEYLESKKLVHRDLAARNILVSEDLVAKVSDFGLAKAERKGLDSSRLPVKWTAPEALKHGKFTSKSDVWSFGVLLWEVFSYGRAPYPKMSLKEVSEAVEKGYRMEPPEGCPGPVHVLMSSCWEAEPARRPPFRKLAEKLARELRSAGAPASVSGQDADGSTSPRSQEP", "settings": "read-out: Percent Control at 100 nM Compound Concentration"}, "TEC": {"target": "TEC (Homo sapiens (Human), UniProt P42680)", "settings": "read-out: Percent Control at 100 nM Compound Concentration"}, "ACVR2A": {"target": "ACVR2A (Homo sapiens (Human), UniProt P27037)", "sequence (P27037 20-513)": "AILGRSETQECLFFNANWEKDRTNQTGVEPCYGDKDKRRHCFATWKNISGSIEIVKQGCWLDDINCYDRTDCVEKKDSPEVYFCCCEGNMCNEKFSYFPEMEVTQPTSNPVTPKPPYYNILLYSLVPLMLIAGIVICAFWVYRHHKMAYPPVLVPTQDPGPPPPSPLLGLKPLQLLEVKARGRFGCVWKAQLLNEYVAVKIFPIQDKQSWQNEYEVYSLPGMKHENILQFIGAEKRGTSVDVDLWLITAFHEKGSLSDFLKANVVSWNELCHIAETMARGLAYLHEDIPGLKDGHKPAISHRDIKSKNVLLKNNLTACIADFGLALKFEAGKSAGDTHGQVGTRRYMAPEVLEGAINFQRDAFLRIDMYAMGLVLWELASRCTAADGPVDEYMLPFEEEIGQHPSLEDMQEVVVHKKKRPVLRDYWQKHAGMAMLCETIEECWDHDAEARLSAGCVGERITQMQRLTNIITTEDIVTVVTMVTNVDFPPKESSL", "settings": "read-out: Percent Control at 100 nM Compound Concentration"}, "SRMS": {"target": "SRMS (Homo sapiens (Human), UniProt Q9H3Y6)", "sequence (Q9H3Y6 whole entry)": "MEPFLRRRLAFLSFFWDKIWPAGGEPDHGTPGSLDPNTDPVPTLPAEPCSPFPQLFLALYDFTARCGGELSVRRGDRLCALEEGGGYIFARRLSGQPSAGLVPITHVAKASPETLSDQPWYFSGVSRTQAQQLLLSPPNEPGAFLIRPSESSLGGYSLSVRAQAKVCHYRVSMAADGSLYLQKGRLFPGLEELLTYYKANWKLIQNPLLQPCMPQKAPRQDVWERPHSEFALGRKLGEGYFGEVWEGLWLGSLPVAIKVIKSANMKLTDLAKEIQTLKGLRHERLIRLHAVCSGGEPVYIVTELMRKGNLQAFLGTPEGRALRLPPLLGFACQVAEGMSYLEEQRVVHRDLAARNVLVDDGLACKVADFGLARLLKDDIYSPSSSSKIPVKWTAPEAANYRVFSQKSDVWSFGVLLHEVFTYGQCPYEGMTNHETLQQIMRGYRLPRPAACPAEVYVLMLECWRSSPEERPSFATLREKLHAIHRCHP", "settings": "read-out: Percent Control at 100 nM Compound Concentration"}, "MRCKB": {"target": "MRCKB (Homo sapiens (Human), UniProt Q9Y5S2)", "settings": "read-out: Percent Control at 100 nM Compound Concentration"}, "HCK": {"target": "HCK (Homo sapiens (Human), UniProt P08631)", "sequence (P08631 whole entry)": "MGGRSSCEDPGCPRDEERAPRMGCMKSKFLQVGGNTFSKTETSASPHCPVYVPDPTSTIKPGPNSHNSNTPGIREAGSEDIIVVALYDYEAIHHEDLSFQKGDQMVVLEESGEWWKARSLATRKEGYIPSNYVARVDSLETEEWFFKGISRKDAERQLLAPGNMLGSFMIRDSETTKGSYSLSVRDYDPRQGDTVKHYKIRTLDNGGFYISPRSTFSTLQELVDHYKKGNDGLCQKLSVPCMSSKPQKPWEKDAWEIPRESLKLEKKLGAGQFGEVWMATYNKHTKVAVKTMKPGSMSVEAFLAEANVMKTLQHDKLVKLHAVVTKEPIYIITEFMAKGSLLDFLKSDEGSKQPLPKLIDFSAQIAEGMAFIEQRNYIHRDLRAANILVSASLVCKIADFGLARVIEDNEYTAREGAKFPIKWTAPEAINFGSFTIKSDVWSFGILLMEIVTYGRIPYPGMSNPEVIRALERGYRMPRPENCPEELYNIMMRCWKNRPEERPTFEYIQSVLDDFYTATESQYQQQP", "settings": "read-out: Percent Control at 100 nM Compound Concentration"}, "CDKL1": {"target": "CDKL1 (Homo sapiens (Human), UniProt Q00532)", "sequence (Q00532 whole entry)": "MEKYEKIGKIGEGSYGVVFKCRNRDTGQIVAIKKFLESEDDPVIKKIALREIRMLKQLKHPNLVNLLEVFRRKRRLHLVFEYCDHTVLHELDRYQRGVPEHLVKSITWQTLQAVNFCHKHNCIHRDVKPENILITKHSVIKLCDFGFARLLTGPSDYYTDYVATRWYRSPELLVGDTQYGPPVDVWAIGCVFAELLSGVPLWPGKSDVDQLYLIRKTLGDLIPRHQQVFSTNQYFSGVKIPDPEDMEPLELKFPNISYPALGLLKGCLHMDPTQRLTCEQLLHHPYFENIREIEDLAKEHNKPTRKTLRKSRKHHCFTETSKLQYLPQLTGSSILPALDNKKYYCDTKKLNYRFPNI", "settings": "read-out: Percent Control at 100 nM Compound Concentration"}, "FLT3(D835H)": {"target": "FLT3(D835H) (Homo sapiens (Human), UniProt P36888, D835H)", "settings": "read-out: Percent Control at 100 nM Compound Concentration"}, "PRKR": {"target": "PRKR (Homo sapiens (Human), UniProt P19525)", "settings": "read-out: Percent Control at 100 nM Compound Concentration"}, "CSK": {"target": "CSK (Homo sapiens (Human), UniProt P41240)", "settings": "read-out: Percent Control at 100 nM Compound Concentration"}, "[2]": {"target": "RSK4(Kin.Dom.1-N-terminal) (Homo sapiens (Human), UniProt Q9UK32)", "sequence (Q9UK32 73-330)": "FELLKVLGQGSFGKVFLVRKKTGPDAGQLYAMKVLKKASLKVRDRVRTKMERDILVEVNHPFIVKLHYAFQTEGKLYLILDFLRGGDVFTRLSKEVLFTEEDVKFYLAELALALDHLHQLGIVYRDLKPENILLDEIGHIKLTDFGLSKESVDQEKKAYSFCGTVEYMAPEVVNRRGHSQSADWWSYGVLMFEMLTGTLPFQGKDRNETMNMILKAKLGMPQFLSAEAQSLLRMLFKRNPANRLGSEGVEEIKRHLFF", "settings": "read-out: Percent Control at 100 nM Compound Concentration"}, "LZK": {"target": "LZK (Homo sapiens (Human), UniProt O43283)", "settings": "read-out: Percent Control at 100 nM Compound Concentration"}, "MLK1": {"target": "MLK1 (Homo sapiens (Human), UniProt P80192)", "sequence (P80192 whole entry)": "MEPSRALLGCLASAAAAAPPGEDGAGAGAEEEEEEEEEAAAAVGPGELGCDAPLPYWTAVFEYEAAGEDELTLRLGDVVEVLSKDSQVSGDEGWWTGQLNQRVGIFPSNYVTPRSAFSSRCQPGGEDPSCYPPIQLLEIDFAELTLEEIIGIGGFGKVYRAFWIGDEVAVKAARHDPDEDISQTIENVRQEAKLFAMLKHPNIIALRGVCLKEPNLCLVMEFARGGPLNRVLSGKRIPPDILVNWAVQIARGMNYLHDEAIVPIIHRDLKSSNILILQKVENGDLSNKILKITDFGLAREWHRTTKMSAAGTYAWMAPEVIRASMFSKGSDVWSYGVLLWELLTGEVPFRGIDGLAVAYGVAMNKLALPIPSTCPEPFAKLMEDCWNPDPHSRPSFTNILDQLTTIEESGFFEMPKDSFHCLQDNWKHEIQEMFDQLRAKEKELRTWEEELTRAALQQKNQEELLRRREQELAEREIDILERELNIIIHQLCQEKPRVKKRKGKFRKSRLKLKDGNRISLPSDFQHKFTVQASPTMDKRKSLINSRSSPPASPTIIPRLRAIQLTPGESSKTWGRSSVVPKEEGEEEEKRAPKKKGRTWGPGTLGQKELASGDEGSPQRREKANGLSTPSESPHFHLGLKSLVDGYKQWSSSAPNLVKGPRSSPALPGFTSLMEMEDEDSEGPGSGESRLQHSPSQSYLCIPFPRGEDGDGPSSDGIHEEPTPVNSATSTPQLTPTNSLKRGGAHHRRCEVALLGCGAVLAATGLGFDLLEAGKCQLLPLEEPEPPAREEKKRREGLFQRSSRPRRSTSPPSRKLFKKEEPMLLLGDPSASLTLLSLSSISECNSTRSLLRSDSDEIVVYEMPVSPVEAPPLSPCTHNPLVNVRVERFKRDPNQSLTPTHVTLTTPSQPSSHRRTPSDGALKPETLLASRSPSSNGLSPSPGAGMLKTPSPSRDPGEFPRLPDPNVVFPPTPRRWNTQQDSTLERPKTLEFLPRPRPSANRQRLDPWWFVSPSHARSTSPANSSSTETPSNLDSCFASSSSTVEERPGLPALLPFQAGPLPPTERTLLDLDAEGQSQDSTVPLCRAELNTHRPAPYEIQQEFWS", "settings": "read-out: Percent Control at 100 nM Compound Concentration"}, "IGFIR": {"target": "IGFIR (Homo sapiens (Human), UniProt P08069)", "settings": "read-out: Percent Control at 100 nM Compound Concentration"}, "YSK4": {"target": "YSK4 (Homo sapiens (Human), UniProt Q56UN5)", "settings": "read-out: Percent Control at 100 nM Compound Concentration"}, "CSNK2A2": {"target": "CSNK2A2 (Homo sapiens (Human), UniProt P19784)", "settings": "read-out: Percent Control at 100 nM Compound Concentration"}, "MTOR": {"target": "MTOR (Homo sapiens (Human), UniProt P42345)", "settings": "read-out: Percent Control at 100 nM Compound Concentration"}}, "note": "Where two headings read alike, the source gives them in different places.", "data": [{"smiles": "CN(C[C@@H](O)Cc1ccccc1)C(=O)c1cncc(C#Cc2cnn(C(F)F)c2)c1", "note": "[Example 2, (S)-5-((1-(difluoromethyl)-1H-pyrazol-4-yl)ethynyl)-N-(2-hydroxy-3-phenylpropyl)-N-methylnicotinamide]", "values": [{"measurement": "remaining activity at 0.1 µM", "setting": "VPS34; VPS34", "result": 87, "unit": "%"}, {"measurement": "remaining activity at 0.1 µM", "setting": "[1]; ABL1(F317I)-nonphosphorylated", "result": 100, "unit": "%"}, {"measurement": "remaining activity at 0.1 µM", "setting": "BMPR1A; BMPR1A", "result": 86, "unit": "%"}, {"measurement": "remaining activity at 0.1 µM", "setting": "MAPKAPK2; MAPKAPK2", "result": 100, "unit": "%"}, {"measurement": "Percent Control at 100 nM Compound Concentration", "setting": "FLT3(ITD,F691L)", "result": 98, "unit": "%"}, {"measurement": "remaining activity at 0.1 µM", "setting": "LTK; LTK", "result": 100, "unit": "%"}, {"measurement": "remaining activity at 0.1 µM", "setting": "STK35; STK35", "result": 99, "unit": "%"}, {"measurement": "remaining activity at 0.1 µM", "setting": "CSNK1A1L; CSNK1A1L", "result": 100, "unit": "%"}, {"measurement": "remaining activity at 0.1 µM", "setting": "PFTK1; PFTK1", "result": 100, "unit": "%"}, {"measurement": "remaining activity at 0.1 µM", "setting": "PKN2; PKN2", "result": 97, "unit": "%"}, {"measurement": "remaining activity at 0.1 µM", "setting": "MKNK2; MKNK2", "result": 82, "unit": "%"}, {"measurement": "remaining activity at 0.1 µM", "setting": "BRSK2; BRSK2", "result": 96, "unit": "%"}, {"measurement": "remaining activity at 0.1 µM", "setting": "CTK; CTK", "result": 100, "unit": "%"}, {"measurement": "remaining activity at 0.1 µM", "setting": "TEC; TEC", "result": 99, "unit": "%"}, {"measurement": "remaining activity at 0.1 µM", "setting": "ACVR2A; ACVR2A", "result": 94, "unit": "%"}, {"measurement": "remaining activity at 0.1 µM", "setting": "SRMS; SRMS", "result": 100, "unit": "%"}, {"measurement": "remaining activity at 0.1 µM", "setting": "MRCKB; MRCKB", "result": 95, "unit": "%"}, {"measurement": "remaining activity at 0.1 µM", "setting": "HCK; HCK", "result": 100, "unit": "%"}, {"measurement": "remaining activity at 0.1 µM", "setting": "CDKL1; CDKL1", "result": 100, "unit": "%"}, {"measurement": "remaining activity at 0.1 µM", "setting": "FLT3(D835H); FLT3(D835H)", "result": 100, "unit": "%"}, {"measurement": "remaining activity at 0.1 µM", "setting": "PRKR; PRKR", "result": 100, "unit": "%"}, {"measurement": "remaining activity at 0.1 µM", "setting": "CSK; CSK", "result": 98, "unit": "%"}, {"measurement": "remaining activity at 0.1 µM", "setting": "[2]; RSK4(Kin.Dom.1-N-terminal)", "result": 100, "unit": "%"}, {"measurement": "remaining activity at 0.1 µM", "setting": "LZK; LZK", "result": 99, "unit": "%"}, {"measurement": "remaining activity at 0.1 µM", "setting": "MLK1; MLK1", "result": 100, "unit": "%"}, {"measurement": "remaining activity at 0.1 µM", "setting": "IGFIR; IGFIR", "result": 100, "unit": "%"}, {"measurement": "remaining activity at 0.1 µM", "setting": "YSK4; YSK4", "result": 99, "unit": "%"}, {"measurement": "remaining activity at 0.1 µM", "setting": "CSNK2A2; CSNK2A2", "result": 100, "unit": "%"}, {"measurement": "remaining activity at 0.1 µM", "setting": "MTOR; MTOR", "result": 73, "unit": "%"}]}, {"smiles": "CN(C[C@H](Cc1ccccc1)OP(=O)(O)O)C(=O)c1cncc(C#Cc2cnn(C(F)F)c2)c1", "note": "[Example 19, (S)-1-(5-((1-(difluoromethyl)-1H-pyrazol-4-yl)ethynyl)-N-methylnicotinamido)-3-phenylpropan-2-yl dihydrogen phosphate]", "values": [{"measurement": "remaining activity at 0.1 µM", "setting": "VPS34", "result": 90, "unit": "%"}, {"measurement": "remaining activity at 0.1 µM", "setting": "[1]", "result": 100, "unit": "%"}, {"measurement": "remaining activity at 0.1 µM", "setting": "BMPR1A", "result": 94, "unit": "%"}, {"measurement": "remaining activity at 0.1 µM", "setting": "MAPKAPK2", "result": 100, "unit": "%"}, {"measurement": "Percent Control at 100 nM Compound Concentration", "setting": "FLT3(ITD,F691L)", "result": 97, "unit": "%"}, {"measurement": "remaining activity at 0.1 µM", "setting": "LTK", "result": 100, "unit": "%"}, {"measurement": "remaining activity at 0.1 µM", "setting": "STK35", "result": 100, "unit": "%"}, {"measurement": "remaining activity at 0.1 µM", "setting": "CSNK1A1L", "result": 97, "unit": "%"}, {"measurement": "remaining activity at 0.1 µM", "setting": "PFTK1", "result": 100, "unit": "%"}, {"measurement": "remaining activity at 0.1 µM", "setting": "PKN2", "result": 100, "unit": "%"}, {"measurement": "remaining activity at 0.1 µM", "setting": "MKNK2", "result": 79, "unit": "%"}, {"measurement": "remaining activity at 0.1 µM", "setting": "BRSK2", "result": 95, "unit": "%"}, {"measurement": "remaining activity at 0.1 µM", "setting": "CTK", "result": 90, "unit": "%"}, {"measurement": "remaining activity at 0.1 µM", "setting": "TEC", "result": 93, "unit": "%"}, {"measurement": "remaining activity at 0.1 µM", "setting": "ACVR2A", "result": 100, "unit": "%"}, {"measurement": "remaining activity at 0.1 µM", "setting": "SRMS", "result": 96, "unit": "%"}, {"measurement": "remaining activity at 0.1 µM", "setting": "MRCKB", "result": 100, "unit": "%"}, {"measurement": "remaining activity at 0.1 µM", "setting": "HCK", "result": 100, "unit": "%"}, {"measurement": "remaining activity at 0.1 µM", "setting": "CDKL1", "result": 100, "unit": "%"}, {"measurement": "remaining activity at 0.1 µM", "setting": "FLT3(D835H)", "result": 100, "unit": "%"}, {"measurement": "remaining activity at 0.1 µM", "setting": "PRKR", "result": 97, "unit": "%"}, {"measurement": "remaining activity at 0.1 µM", "setting": "CSK", "result": 93, "unit": "%"}, {"measurement": "remaining activity at 0.1 µM", "setting": "[2]", "result": 93, "unit": "%"}, {"measurement": "remaining activity at 0.1 µM", "setting": "LZK", "result": 99, "unit": "%"}, {"measurement": "remaining activity at 0.1 µM", "setting": "MLK1", "result": 96, "unit": "%"}, {"measurement": "remaining activity at 0.1 µM", "setting": "IGFIR", "result": 98, "unit": "%"}, {"measurement": "remaining activity at 0.1 µM", "setting": "YSK4", "result": 90, "unit": "%"}, {"measurement": "remaining activity at 0.1 µM", "setting": "CSNK2A2", "result": 100, "unit": "%"}, {"measurement": "remaining activity at 0.1 µM", "setting": "MTOR", "result": 67, "unit": "%"}]}]}
